PubChem BioAssay AID449762 (Southern Research Specialized Biocontainment Screening …, 2010)
Results filed as inconclusive are left out.

System: M. tuberculosis H37Rv growth inhibition, 7H9 media
Test: M. tuberculosis growth inhibition, HTS (AID 449762);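 further: bacterial growth assessed after seven days of incubation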
Conditions: for IC90: measured here: IC90 growth inhibition

| Compound | IC50 [µM] | IC90 [µM] |
| --- | --- | --- |
| CCc1ccc(C2c3[nH]c4ccccc4c3CCN2C(=O)c2ccc(=O)n(C)n2)cc1 (centres undefined) | 49.6 | 74.3 |
| CCOC(=O)CSc1nc(N)c(C(=O)Nc2ccc(N(C)C)cc2)s1 | 1.05 | 5.82 |
| CCNc1nc(NCC)nc(N/N=C/c2ccc([N+](=O)[O-])o2)n1 | 0.99 | 1.67 |
| O=C(Nc1ccc(Cl)cc1)N1CCN(c2ccc3nnc(-c4ccc(F)cc4)n3n2)CC1 | 13.8 | 26.4 |
| C/C(O)=C\c1nc2ccccc2oc1=O | 0.77 | 0.86 |
| CC(C)OC(=O)c1ccc(COC(=O)c2cnccn2)cc1 | 7.68 | > 100 |
| CC[N+](C)(CC)CCCCOc1ccc2c(c1)C(=O)c1cc(OCCCC[N+](C)(CC)CC)ccc1-2 | 0.96 | 1.52 |
| COc1ccc(NC(=O)NC(C)C2CC3CCC2C3)cc1 (centres undefined) | 23.6 | 27.1 |
| c1ccc(-c2nnc(-c3ccccn3)nn2)nc1 | 3.61 | 6.27 |
| COc1cc2nc(Nc3ccc(C)c(Cl)c3)nc(N)c2cc1OC | 33.2 | 98.8 |
| CC/C(C)=N/NC(=S)NCc1ccco1 | 47.5 | 53.8 |
| COC(=O)c1cc(-c2cccc(OC)c2)on1 | 0.37 | > 100 |
| COc1ccc(-c2nsc3c(N4CCCCC4C)ncnc23)cc1 (centres undefined) | 41.2 | 56.8 |
| CCN1C(N(C)CCc2c[nH]c3ccccc23)=N[C@@H](c2cccc(C(F)(F)F)c2)C(C(=O)OC)=C1C | 21.5 | 23.7 |
| Cc1cc(OC(=O)c2cccs2)c2c3c(c(=O)oc2c1)CCCC3 | 3.04 | 3.52 |
| CS(=O)(=O)c1ncc(Cl)c(C(=O)Nc2ccc(OC(F)F)cc2)n1 | 5.68 | 15.5 |
| O=[N+]([O-])c1ncccc1Oc1nc(-c2cccnc2)nc2ccccc12 | < 0.2 | 1.36 |
| Nc1[nH]n2c(=O)cc(-c3ccccc3)nc2c1N=Nc1ccc2c(c1)OCO2 | 23.4 | 26.6 |
| COC(=O)CCCCC1SCC(NC(=O)c2ccccc2)C1=O (centres undefined) | 8.79 | 15.4 |
| COc1ccc2nc(N=NC3=C(O)CC(C)(C)CC3=O)sc2c1 | 12.4 | 13.7 |
| COc1cccc(-c2cnc(NCc3cc(Cl)ccc3O)n2C)c1 | 19.1 | 22.9 |
| CC(=O)/C(=C\Nc1ccc(OCc2ccccc2)cc1)c1ccccc1 | 2.28 | 12.1 |
| CC(Sc1nnc(NC2CCCCC2)s1)C(=O)Nc1ccc2c(c1)C(=O)c1ccccc1C2=O (centres undefined) | 11.5 | 12.6 |

| Compound | IC50 [µM] | IC90 [µM] |
| --- | --- | --- |
| COC(=O)CSc1nnc(CNc2ccc(Cl)cc2)n1-c1ccccc1 | 12.7 | 37.4 |
| COc1ccc(C(=O)OCCNC(=O)c2c(Cl)nc3ccccn23)cc1 | 10 | 16.1 |
| COc1ccc([C@H]2CC(=O)C=C(c3ccc4c5c(cccc35)CC4)C2)cc1 | 11 | 23 |
| CCOc1ccc(N=CC2=C(O)CC(c3ccco3)CC2=O)cc1 (centres undefined) | 80.4 | > 100 |
| Cc1nc(SCC(=O)NC2CCCCC2)[nH]c(=O)c1C | < 0.2 | < 0.2 |
| Cc1ccc(OC/C(O)=C(\C#N)c2nc3ccccc3s2)cc1 | 20.7 | 34 |
| COc1ccc(COC(=O)CCNC(=O)c2ccc(Cl)cc2)cc1 | 58.7 | > 100 |
| CN(C(=O)c1cccc(Nc2ccc(-c3ccc4c(c3)OCCO4)nn2)c1)C1CCCCC1 | 50.8 | > 100 |
| Cn1c(CNc2nc(-c3ccccc3)cs2)nnc1SCC(=O)OC1CCCCC1 | 11.6 | 24.2 |
| O=C(NCC1CC1)c1cc([N+](=O)[O-])cc([N+](=O)[O-])c1 | 5.75 | 6.43 |
| CC1CCCC(C)N1/N=C/c1c[nH]c2ccc(Br)cc12 (centres undefined) | 23.3 | 26.3 |
| COc1cccc(C(=O)NC2CC3CCCC(C2)N3CC(=O)Nc2ccc(N(C)C)cc2)c1 (centres undefined) | 19.7 | 24.8 |
| COc1ccc(OC)c(CN2CCN(C(=O)CNC(=O)c3ccc(C(C)(C)C)cc3)CC2)c1 | 47.4 | 67.8 |
| Cc1ccc(C(=O)CC(SCC(=O)O)c2ccc([N+](=O)[O-])cc2)cc1 (centres undefined) | 5.78 | 6.72 |
| Cc1ccc(C2=NCCn3c2c2ccccc2[n+]3[O-])cc1 | 22.6 | 38.9 |
| CC(C)Nc1nc(NC(C)C)nc(N(C)N)n1 | 5.75 | 7.57 |
| CC(=O)c1cccc(NC(=O)C2C3C=CC(C3=C(c3ccccc3)c3ccccc3)C2C(=O)O)c1 (centres undefined) |  | > 100 |
| Cc1ccccc1CSc1nsc(N)n1 | 6.7 | 19.6 |
| Cc1cc(N/N=C2/CCCc3ccccc32)nc2ccccc12 | 31.7 | 37.9 |
| Cc1cc(N2CCC(C)CC2)nc(-n2nc(C)cc2C)n1 | < 0.2 | 5.47 |
| CCn1cc([N+](=O)[O-])c(C(=O)N2N=C(c3ccc4ccccc4c3)CC2c2ccccc2O)n1 (centres undefined) | 49.6 | > 100 |
| CC(C)(C)OC(=O)NNc1c2ccccc2nc2ccccc12 | 22.8 | 25.7 |
| Cc1[nH]c2ccccc2c1/C=N/Nc1nc(Nc2ccccc2)nc(N2CCOCC2)n1 | 2.88 | 10 |

| Compound | IC50 [µM] | IC90 [µM] |
| --- | --- | --- |
| COc1cccc(C2C3=C(N=c4s/c(=C\c5cccc(O)c5)c(=O)n42)c2ccccc2CC3)c1OC (centres undefined) | 23.3 | 27.1 |
| Cc1cccc(/C=C2/S/C(=N/N=C3\CC4CCC3(C)C4(C)C)NC2=O)c1 (centres undefined) | 7.92 | > 100 |
| OC(CNCCc1ccc(C(F)(F)F)cc1)COC(c1ccccc1)c1ccccc1 (centres undefined) | 16.7 | 21.2 |
| COc1cc2cnc(-c3ccccc3)c(-c3ccc(C(F)(F)F)cc3)c2cc1OC | 44 | > 50 |
| COc1ccccc1/C(C)=N/NC(=S)NCc1ccccc1 | 23.3 | 26.6 |
| N=c1n(Cc2ccc(Cl)cc2)c2ccccc2n1CC(O)COc1ccccc1 (centres undefined) | 17.5 | 25.5 |
| Cc1cc(C)nc(Sc2ncnc(N)c2[N+](=O)[O-])n1 | 7.98 | 20.7 |
| COc1ccc(OC)c(C(=O)NC(CC(N)=O)c2ccc(NCc3ccc(F)c(F)c3)c([N+](=O)[O-])c2)c1 (centres undefined) | 5.38 | 23.6 |
| COc1ccccc1N1CCN(CCCCOc2cccc3ccccc23)CC1 | 34 | 44.5 |
| O=C(CCl)Nc1cccn2ncnc12 | 1.38 | 2.89 |
| O=C1Nc2cc(C(=O)NCCCN3CCOCC3)ccc2S/C1=C/c1cccc(Cl)c1 | 26.3 | 41 |
| COc1ccc(N(CC(=O)Nc2cc(Cl)ccc2C)S(=O)(=O)c2c(C)n[nH]c2C)cc1 | 45.8 | 51.2 |
| CN(C)N=Nc1nc[nH]c1C(N)=O | 4.86 | 6.76 |
| Cc1cc(-n2c(C)cc(C(=O)COc3ccc4ccc(=O)oc4c3)c2C)no1 | 68.6 | > 100 |
| O=C(Nc1nc(-c2cc(Cl)sc2Cl)cs1)c1cccs1 | 29.3 | > 100 |
| O=C(c1ccc(CNc2c(N3CCCC3)c(=O)c2=O)cc1)N1CC=C(c2ccccc2)CC1 | 0.76 | 0.87 |
| Cc1nn(CCc2nn[nH]n2)c2nc(-c3ccc(Br)cc3)cc(C(F)(F)F)c12 | 4.64 | 10.8 |
| Cn1nc(C(C)(C)C)cc1NC(=O)Nc1cc(Cl)cc(Cl)c1 | 18.5 | 26.3 |
| O=C1C(Cl)=C(N2CCOCC2)C(=O)N1c1cccc(Cl)c1 | 3.48 | 7.3 |
| COC(=O)C(C)Oc1cc(C)ccc1COc1ccc(-n2nc(C)n(C(F)F)c2=O)cc1 (centres undefined) | 16.6 | 32.9 |
| CC(=O)N1CCN(c2ccc(OC[C@H]3CO[C@](Cn4ccnc4)(c4ccc(Cl)cc4Cl)O3)cc2)CC1 | 17.5 | 25.2 |
| NCCCn1c(C(=O)c2ccc(Cl)cc2)c2ccc([N+](=O)[O-])cc2[n+]1[O-] | 23.9 | 32.3 |
| CCCC12CN3CC(CCC)(CN(C1)C3c1ccccn1)C2=O (centres undefined) | 1.02 | 18.1 |

| Compound | IC50 [µM] | IC90 [µM] |
| --- | --- | --- |
| O=C(Nc1ccc(Cl)cc1)N(C1=NCCC1)c1ccc(OC(F)F)cc1 | 35 | 70.9 |
| COc1c(C)cc(C(=O)C2CCCN(Cc3ccccn3)C2)cc1C (centres undefined) | 5.8 | > 100 |
| CN1C(=O)/C(=C/c2ccccc2Cl)Sc2ccc(C(=O)NCc3cccnc3)cc21 | 23.2 | 68.9 |
| Cc1sc2ncnc(Oc3ccc(-n4ccnc4)cc3)c2c1C | 33.3 | 55.5 |
| CCN(CC)S(=O)(=O)c1ccc2[nH]cc(C(=O)NCCC3=CCCCC3)c(=O)c2c1 | 40.7 | > 100 |
| Nc1nc2ccccc2n1/N=C/c1ccc(Br)cc1 | 12.2 | > 25 |
| NNC(=S)NCc1ccc2c(c1)OCO2 | 23.8 | 26.8 |
| CCCCCCC#Cc1ccc2c(c1)COc1c3ccccc3nn1-2 | 93.8 | > 100 |
| Cc1cc(-c2n[nH]c(=S)n2/N=C/C(Br)=C/c2ccccc2)n[nH]1 | 2.08 | 5.63 |
| CCCc1cc(C(N)=S)ccn1 | 6.61 | > 100 |
| CC(C)=CCOc1ccc([C@@H]2COc3c(ccc4c3C=CC(C)(C)O4)C2)c(O)c1 | 4.75 | 7.77 |
| COc1c[nH]n(C2CCCCC2)c(=O)c1=O | 11.8 | 18.1 |
| Clc1ccc2c(c1)CCc1cccnc1C2=C1CCNCC1 | 26.8 | 31.3 |
| CC1=C(C)C(=O)C(CCCCC#CCCCC#CCO)=C(C)C1=O | 10.9 | 18.7 |
| Cc1cc2c(N=O)c(NO)ccc2[nH]1 | 10.3 | 15 |
| O=C(NC(=S)Nc1cccc2cccnc12)c1ccccc1 | 14.7 | > 100 |
| Cc1nc(N)nc(N)c1CCCc1ccc(Cl)c(Cl)c1 | 78.2 | > 100 |
| COc1ccc(-c2nnc3sc(C4CCCCC4)nn23)cc1OC | 36.2 | 55.3 |
| COc1ccc(-c2ccc(C#N)c(SCC(=O)OCc3ccccc3)n2)cc1OC | 20.1 | 69.5 |
| Cc1cc(CC(C)C)n(-c2nc3ccccc3c(=O)n2OCC(N)=O)n1 | 3.88 | 12.7 |
| O=C1C(SCCO)=C(SCCO)C(=O)c2ccccc21 | 6.06 | 6.83 |
